The text below walks through data of publication PMC8868518, “Exploring Titanium(IV) Complexes as Potential Antimicrobial Compounds” (Antibiotics, 2022).

Broadly, the MIC is the least concentration at which growth counts as inhibited.

Assay [1] relates to K. pneumoniae (ATCC 700603). Briefly: CO-ADD antibacterial assay, growth inhibition (OD600). The format is cell-based, Klebsiella pneumoniae. As to conditions: up to 32 μg/mL; for MIC / Dmax: Klebsiella pneumoniae, ATCC700603; for MIC / MIC K. pneumoniae: predicted or measured MIC, ≥75% growth inhibition; for Dmax: read-out: Dmax K. pneumoniae, maximum % inhibition.
The subject of assay [2] is A. baumannii (ATCC 19606). The description is as above. The format is cell-based, Acinetobacter baumannii. As to conditions: up to 32 μg/mL; for MIC / Dmax: Acinetobacter baumannii, ATCC19606; for MIC / MIC A. baumannii: predicted or measured MIC, ≥75% growth inhibition; for Dmax: read-out: Dmax A. baumannii, maximum % inhibition.
The test system of assay [3] is C. neoformans (ATCC 208821). Nature of the assay: CO-ADD antifungal assay, growth inhibition (resazurin, OD600-570). The format is cell-based, Cryptococcus neoformans. As to conditions: up to 32 μg/mL; for MIC / Dmax: Cryptococcus neoformans, ATCC208821; for MIC / MIC C. neoformans: predicted or measured MIC, ≥75% growth inhibition, 36 h; for Dmax: read-out: Dmax C. neoformans, maximum % inhibition.

In the next assay the test system is E. coli (ATCC 25922). Nature of the assay: CO-ADD antibacterial assay, growth inhibition (OD600). It is filed as cell-based, Escherichia coli. The conditions noted are these: up to 32 μg/mL; for MIC / Dmax: Escherichia coli, ATCC25922; for MIC / MIC E. coli: predicted or measured MIC, ≥75% growth inhibition; for Dmax: read-out: Dmax E. coli, maximum % inhibition.

In assay [4] the test system is P. aeruginosa (ATCC 27853). The description is as above. It is filed as cell-based, Pseudomonas aeruginosa. The conditions noted are these: up to 32 μg/mL; for MIC / Dmax: Pseudomonas aeruginosa, ATCC27853; for MIC / MIC P. aeruginosa: predicted or measured MIC, ≥75% growth inhibition; for Dmax: read-out: Dmax P. aeruginosa, maximum % inhibition.

Structures can show the parent of a compound that is named as a salt. Some results are limits rather than exact numbers.

For the compound `O=C(O)CC(O)(CC(=O)O)C(=O)O` [Compound 1, Trisodium citrate, reference compound], the MIC (in assay [1]; in assay [2]; in assay [3]; with E. coli (ATCC 25922); in assay [4]) was > 32 µg/mL throughout. The Dmax in assay [1] was 14.2%; in assay [2], 18%; in assay [3] it was -8.24%; in the assay on E. coli (ATCC 25922) it was 6.14%; in assay [4], 10.3%.

Regarding `O=C(O)c1ccccc1O` [Compound 6, salicylic acid, reference compound], the MIC (in assay [1]; in assay [2]; in assay [3]; in the assay on E. coli (ATCC 25922); in assay [4]) was > 32 µg/mL in each case. The Dmax in assay [1] is 17.1%; in assay [2] it was 17.9%; in assay [3] it was -10.7%; in the assay on E. coli (ATCC 25922), -0.01%; in assay [4], 9.76%.

As to `[K+].[K+].c1ccc2cc3c(cc2c1)[O][Ti-2]12([O]3)([O]c3cc4ccccc4cc3[O]1)[O]c1cc3ccccc3cc1[O]2` [Compound 8, K2[Ti(Naphthalene-2,3-diolate)3]], in assay [1], the “MIC K. pneumoniae” value is >32 µg/mL and the “Dmax K. pneumoniae, maximum % inhibition” value was determined as 22.94%. In assay [2], the “MIC A. baumannii” value was >32 µg/mL and the “Dmax A. baumannii, maximum % inhibition” value was determined as 24.76%. Besides, in assay [3], the “MIC C. neoformans” value was >32 µg/mL and the “Dmax C. neoformans, maximum % inhibition” value is listed as −1.45%. Further, in the assay with E. coli (ATCC 25922), the “MIC E. coli” value was >32 µg/mL and the “Dmax E. coli, maximum % inhibition” value is listed as 2.67%. For the same compound, in assay [4], the “MIC P. aeruginosa” value was >32 µg/mL and the “Dmax P. aeruginosa, maximum % inhibition” value is recorded as 13.43%.

As for [Cu(Deferasirox)(H2O)]2 [Compound 15], in assay [1], the “MIC K. pneumoniae” value was >32 µg/mL and the “Dmax K. pneumoniae, maximum % inhibition” value turned out to be 7.7%. Besides, in assay [2], the “MIC A. baumannii” value is >32 µg/mL and the “Dmax A. baumannii, maximum % inhibition” value is recorded as 7.8%. Also, the “MIC C. neoformans” value in assay [3] is >32 µg/mL. Besides, in the assay on E. coli (ATCC 25922), the “MIC E. coli” value was >32 µg/mL and the “Dmax E. coli, maximum % inhibition” value is given as −9.5%. Further, in assay [4], the “MIC P. aeruginosa” value is >32 µg/mL and the “Dmax P. aeruginosa, maximum % inhibition” value came out at 19.2%.

Consider `O=C(O)c1ccc(-n2nc3nc2-c2ccccc2[O][Ti]2([O]c4ccccc4-3)[O]c3ccccc3-c3nc(n(-c4ccc(C(=O)O)cc4)n3)-c3ccccc3[O]2)cc1` [Compound 10, titanium(IV) bis(deferasirox)], for which, in assay [1], the “MIC K. pneumoniae” value is >32 µg/mL and the “Dmax K. pneumoniae, maximum % inhibition” value is reported as 34.61%. Besides, in assay [2], the “MIC A. baumannii” value is >32 µg/mL and the “Dmax A. baumannii, maximum % inhibition” value is on record as 16.28%. Also, in assay [3], the “MIC C. neoformans” value was >32 µg/mL and the “Dmax C. neoformans, maximum % inhibition” value is on record as −5.72%. In the assay with E. coli (ATCC 25922), the “MIC E. coli” value is >32 µg/mL and the “Dmax E. coli, maximum % inhibition” value is 20.44%. In addition, in assay [4], the “MIC P. aeruginosa” value is >32 µg/mL and the “Dmax P. aeruginosa, maximum % inhibition” value was determined as 7.57%.

Consider `Oc1cc2ccccc2cc1O` [Compound 2, 2,3-dihydroxynaphthalene, reference compound], for which the MIC (in assay [1]; in assay [2]; in assay [3]; in the assay with E. coli (ATCC 25922); in assay [4]) was > 32 µg/mL each time. Besides, the Dmax is 26.8% in assay [1]; 31.3% in assay [2]; -9.97% in assay [3]; 6.86% in the assay with E. coli (ATCC 25922); 14.6% in assay [4].

Take `O=C([O-])C(=O)O.O=C([O-])C(=O)O.[K+].[K+].[O]=[Ti]` [Compound 14, Potassium dioxalatoxotitanate(IV) dihydrate]: in assay [1], the “MIC K. pneumoniae” value is >32 µg/mL and the “Dmax K. pneumoniae, maximum % inhibition” value came out at 17.2%. In assay [2], the “MIC A. baumannii” value is >32 µg/mL and the “Dmax A. baumannii, maximum % inhibition” value worked out at 8.2%. In addition, the “MIC C. neoformans” value in assay [3] was >32 µg/mL. Besides, in the assay on E. coli (ATCC 25922), the “MIC E. coli” value was >32 µg/mL and the “Dmax E. coli, maximum % inhibition” value was 11.0%. In assay [4], the “MIC P. aeruginosa” value was >32 µg/mL and the “Dmax P. aeruginosa, maximum % inhibition” value was 7.5%.
